Test results from patent US8247170B2, “Detection of penicillin tolerance in Group B Streptococcus: single nucleotide polymorphisms in penicillin binding protein 4” (priority 2008, dated 2012).

System: GBS clinical isolates and laboratory strains
Assay: Macrobroth penicillin tolerance assay
Format: cell-based, Group B Streptococcus
Conditions: then 24 h drug-free; for 10xMIC, regrowth O.D.600: Penicillin G 10×MIC90 48 h; for 30xMIC, regrowth O.D.600: Penicillin G 30×MIC90 48 h; for 100xMIC, regrowth O.D.600: Penicillin G 100×MIC90 48 h; for 300xMIC, regrowth O.D.600: Penicillin G 300×MIC90 48 h
Protocol: Using this modified penicillin tolerance assay, tolerant strains from the GBS clinical isolates can be more efficiently identified. In this macrobroth culture format, 25 ml THB broth GBS cultures (containing clinical isolates) were grown to an early exponential growth phase (˜0.2 OD600). Cell cultures (6 ml) were collected and divided into 4 culture tubes. […] Cell cultures were shaken at 150 rpm in order to maintain cells in suspension for proper growth. Subcultures (1/20 dilution) of cells were put into fresh THB containing […] Penase (i.e., 100 μl of Penase 10,000 U stock into 4 ml THB culture). Subcultures were allowed to grow for 24 hours at 37° C. Cell growth was monitored by OD (see Example 2).
(I) Bacterial Strains and Culture Conditions. GBS strains A909 (serotype IA), 515 (serotype IA), NEM316 (serotype III), COHI (serotype III), 2603V/R (serotype V) and O90R (non-typable) were used in this study. E. coli Top10 cells were used for the recombination experiments. GBS was cultured in Todd Hewitt broth (THB) or Tryptic Soy 5% sheep blood (TS) media and E. coli in Luria-broth (LB) medium or agar. Antibiotics were used at the following concentrations: for GBS—penicillin G (MIC90 0.06 μg ml^−1), ampicillin (MIC90 0.12 μg ml^−1), vancomycin (MIC90 2 μg ml^−1), cefazolin (MIC90 1 μg ml^−1) and chloramphenicol (5 μg ml^−1); for E. coli—ampicillin (50 μg ml^−1) and chloramphenicol (5 μg ml^−1). Both GBS and E. coli cultures were grown at 37° C. (II) Tolerance Using the MBC:MIC Ratio Method. Three GBS laboratory strains (i.e., A909, NEM316, and O90R) were cultured overnight for 18 h at 37° C. in THB. Subcultures in THB were subsequently grown to exponential phase (OD600˜0.3; i.e. 5×10^5 cfu/ml) at 37° C. Cell cultures were then exposed to different concentrations of antibiotics (Penicillin G, Ampicillin, Cefozolin or Vancomycin). […] Cell cultures were dispersed every 18 h before OD600 was measured to determine the lowest concentration of antibiotic with 90% growth inhibition (MIC90). Antibiotic treated cells (8 μl) from each well were re-suspended into PBS (100 μl) and plated (54 μl) on TS agar plates and allowed to grow for an additional 24 h at 37° C. Cell count was performed to determine the lowest concentration of antibiotic with 90% killing of original inoculums (MBC90). (III) Penicillin Killing and Regrowth Tolerance Assay by Microbroth Dilution. Three GBS laboratory strains (i.e., A909, NEM316, and O90R) were cultured overnight for 18 h at 37° C. in THB. Subcultures in THB were subsequently grown to exponential phase (OD600˜0.3) at 37° C. Cell cultures were then exposed to different concentrations of Penicillin G (Sigma, St. Louis, Mo.). […] Cell cultures were dispersed. A 1:20 dilution of cells was re-plated into new wells containing fresh THB with 500 U Penase (to degrade residual penicillin). Cell cultures were allowed to re-grow for an additional 24 h at 37° C. before the OD600 was measured. (IV) Measuring Cell Viability by Determining ATP Concentration. GBS strains were cultured for 18 h at 37° C. in THB. These cells were inoculated into fresh THB and subsequently allowed to grow to exponential phase (OD600 0.25-0.3) at 37° C. One ml of each culture was centrifuged at 5,000×g for 4 min. The cell pellet was re-suspended in ATP-free water. Cellular ATP was extracted using trichloroacetic acid (TCA) (5%) for 2 min and subsequently neutralized with Tris-EDTA-0.1M NaOAc, pH 7.75 to 10×TCA volume. The initial (in.) cellular ATP concentration ([ATP]) was measured using the ENLITEN (Promega) luciferase based reaction kit. THB cultures were then treated with 100×MIC90 Penicillin G for 22 h. The experimental (exp.) cellular ATP was extracted and the concentration was measured as stated above. Based on the calculations ([ATP] exp.)/([ATP] in./O.D. in.), differences in viability were equated with the change in [ATP]. (V) Measuring Penicillin Induced Lysis. Three GBS laboratory strains (A909, NEM316, and O90R) were cultured for 18 h at 37° C. in THB. […]

Structure (SMILES): CC1(C)S[C@@H]2[C@H](NC(=O)Cc3ccccc3)C(=O)N2[C@H]1C(=O)O [Penicillin G]
- 10xMIC, regrowth O.D.600 (GBS strain 308 (V)): −− (“−−” indicates an O.D.600 of 0.001 to 0.099)
- 30xMIC, regrowth O.D.600 (GBS strain 308 (V)): −− (“−−” indicates an O.D.600 of 0.001 to 0.099)
- 100xMIC, regrowth O.D.600 (GBS strain 308 (V)): −− (“−−” indicates an O.D.600 of 0.001 to 0.099)
- 300xMIC, regrowth O.D.600 (GBS strain 308 (V)): −− (“−−” indicates an O.D.600 of 0.001 to 0.099)
- 10xMIC, regrowth O.D.600 (GBS strain 311 (Ib)): −− (“−−” indicates an O.D.600 of 0.001 to 0.099)
- 30xMIC, regrowth O.D.600 (GBS strain 311 (Ib)): −− (“−−” indicates an O.D.600 of 0.001 to 0.099)
- 100xMIC, regrowth O.D.600 (GBS strain 311 (Ib)): + (“+” indicates an O.D.600 of 0.100 to 0.250)
- 300xMIC, regrowth O.D.600 (GBS strain 311 (Ib)): + (“+” indicates an O.D.600 of 0.100 to 0.250)
- 10xMIC, regrowth O.D.600 (GBS strain 316 (V)): −− (“−−” indicates an O.D.600 of 0.001 to 0.099)
- 30xMIC, regrowth O.D.600 (GBS strain 316 (V)): −− (“−−” indicates an O.D.600 of 0.001 to 0.099)
- 100xMIC, regrowth O.D.600 (GBS strain 316 (V)): −− (“−−” indicates an O.D.600 of 0.001 to 0.099)
- 300xMIC, regrowth O.D.600 (GBS strain 316 (V)): −− (“−−” indicates an O.D.600 of 0.001 to 0.099)
- 10xMIC, regrowth O.D.600 (GBS strain 320 (III)): +++ (“+++” indicates an O.D.600 of 0.751 to 1.500)
- 30xMIC, regrowth O.D.600 (GBS strain 320 (III)): +++ (“+++” indicates an O.D.600 of 0.751 to 1.500)
- 100xMIC, regrowth O.D.600 (GBS strain 320 (III)): +++ (“+++” indicates an O.D.600 of 0.751 to 1.500)
- 300xMIC, regrowth O.D.600 (GBS strain 320 (III)): +++ (“+++” indicates an O.D.600 of 0.751 to 1.500)
- 10xMIC, regrowth O.D.600 (GBS strain 357 (NT)): −− (“−−” indicates an O.D.600 of 0.001 to 0.099)
- 30xMIC, regrowth O.D.600 (GBS strain 357 (NT)): −− (“−−” indicates an O.D.600 of 0.001 to 0.099)
- 100xMIC, regrowth O.D.600 (GBS strain 357 (NT)): +++ (“+++” indicates an O.D.600 of 0.751 to 1.500)
- 300xMIC, regrowth O.D.600 (GBS strain 357 (NT)): ++ (“++” indicates an O.D.600 of 0.251 to 0.750)
- 10xMIC, regrowth O.D.600 (GBS strain 359 (V)): −− (“−−” indicates an O.D.600 of 0.001 to 0.099)
- 30xMIC, regrowth O.D.600 (GBS strain 359 (V)): −− (“−−” indicates an O.D.600 of 0.001 to 0.099)
- 100xMIC, regrowth O.D.600 (GBS strain 359 (V)): −− (“−−” indicates an O.D.600 of 0.001 to 0.099)
- 300xMIC, regrowth O.D.600 (GBS strain 359 (V)): −− (“−−” indicates an O.D.600 of 0.001 to 0.099)
- 10xMIC, regrowth O.D.600 (GBS strain 367 (V)): −− (“−−” indicates an O.D.600 of 0.001 to 0.099)
- 30xMIC, regrowth O.D.600 (GBS strain 367 (V)): −− (“−−” indicates an O.D.600 of 0.001 to 0.099)
- 100xMIC, regrowth O.D.600 (GBS strain 367 (V)): −− (“−−” indicates an O.D.600 of 0.001 to 0.099)
- 300xMIC, regrowth O.D.600 (GBS strain 367 (V)): −− (“−−” indicates an O.D.600 of 0.001 to 0.099)
- 10xMIC, regrowth O.D.600 (GBS strain 377 (V)): −− (“−−” indicates an O.D.600 of 0.001 to 0.099)
- 30xMIC, regrowth O.D.600 (GBS strain 377 (V)): −− (“−−” indicates an O.D.600 of 0.001 to 0.099)
- 100xMIC, regrowth O.D.600 (GBS strain 377 (V)): −− (“−−” indicates an O.D.600 of 0.001 to 0.099)
- 300xMIC, regrowth O.D.600 (GBS strain 377 (V)): −− (“−−” indicates an O.D.600 of 0.001 to 0.099)
- 10xMIC, regrowth O.D.600 (GBS strain 378 (NT)): −− (“−−” indicates an O.D.600 of 0.001 to 0.099)
- 30xMIC, regrowth O.D.600 (GBS strain 378 (NT)): −− (“−−” indicates an O.D.600 of 0.001 to 0.099)
- 100xMIC, regrowth O.D.600 (GBS strain 378 (NT)): −− (“−−” indicates an O.D.600 of 0.001 to 0.099)
- 300xMIC, regrowth O.D.600 (GBS strain 378 (NT)): −− (“−−” indicates an O.D.600 of 0.001 to 0.099)
- 10xMIC, regrowth O.D.600 (GBS strain 379 (V)): −− (“−−” indicates an O.D.600 of 0.001 to 0.099)
- 30xMIC, regrowth O.D.600 (GBS strain 379 (V)): −− (“−−” indicates an O.D.600 of 0.001 to 0.099)
- 100xMIC, regrowth O.D.600 (GBS strain 379 (V)): −− (“−−” indicates an O.D.600 of 0.001 to 0.099)
- 300xMIC, regrowth O.D.600 (GBS strain 379 (V)): −− (“−−” indicates an O.D.600 of 0.001 to 0.099)
- 10xMIC, regrowth O.D.600 (GBS strain 380 (NT)): −− (“−−” indicates an O.D.600 of 0.001 to 0.099)
- 30xMIC, regrowth O.D.600 (GBS strain 380 (NT)): −− (“−−” indicates an O.D.600 of 0.001 to 0.099)
- 100xMIC, regrowth O.D.600 (GBS strain 380 (NT)): +++ (“+++” indicates an O.D.600 of 0.751 to 1.500)
- 300xMIC, regrowth O.D.600 (GBS strain 380 (NT)): + (“+” indicates an O.D.600 of 0.100 to 0.250)
- 10xMIC, regrowth O.D.600 (GBS strain 388 (NT)): −− (“−−” indicates an O.D.600 of 0.001 to 0.099)
- 30xMIC, regrowth O.D.600 (GBS strain 388 (NT)): −− (“−−” indicates an O.D.600 of 0.001 to 0.099)
- 100xMIC, regrowth O.D.600 (GBS strain 388 (NT)): −− (“−−” indicates an O.D.600 of 0.001 to 0.099)
- 300xMIC, regrowth O.D.600 (GBS strain 388 (NT)): −− (“−−” indicates an O.D.600 of 0.001 to 0.099)
- 10xMIC, regrowth O.D.600 (GBS strain 389 (Ia)): ++ (“++” indicates an O.D.600 of 0.251 to 0.750)
- 30xMIC, regrowth O.D.600 (GBS strain 389 (Ia)): +++ (“+++” indicates an O.D.600 of 0.751 to 1.500)
- 100xMIC, regrowth O.D.600 (GBS strain 389 (Ia)): +++ (“+++” indicates an O.D.600 of 0.751 to 1.500)
- 300xMIC, regrowth O.D.600 (GBS strain 389 (Ia)): +++ (“+++” indicates an O.D.600 of 0.751 to 1.500)
- 10xMIC, regrowth O.D.600 (GBS strain 391 (NT)): ++ (“++” indicates an O.D.600 of 0.251 to 0.750)
- 30xMIC, regrowth O.D.600 (GBS strain 391 (NT)): ++ (“++” indicates an O.D.600 of 0.251 to 0.750)
- 100xMIC, regrowth O.D.600 (GBS strain 391 (NT)): ++ (“++” indicates an O.D.600 of 0.251 to 0.750)
- 300xMIC, regrowth O.D.600 (GBS strain 391 (NT)): ++ (“++” indicates an O.D.600 of 0.251 to 0.750)
- 10xMIC, regrowth O.D.600 (GBS strain 399 (V)): −− (“−−” indicates an O.D.600 of 0.001 to 0.099)
- 30xMIC, regrowth O.D.600 (GBS strain 399 (V)): + (“+” indicates an O.D.600 of 0.100 to 0.250)
- 100xMIC, regrowth O.D.600 (GBS strain 399 (V)): + (“+” indicates an O.D.600 of 0.100 to 0.250)
- 300xMIC, regrowth O.D.600 (GBS strain 399 (V)): + (“+” indicates an O.D.600 of 0.100 to 0.250)
